Key:
[1] = system: A549 cells; assay: Migration ability, Boyden chamber assay, A549 cells; assay type: cell-based; settings: 1 μM hANP, TGF-β1 1 ng/mL, 20 hours
Experimental: (§1) Using a 6-well dish, the A549 cells were cultured at 1×10^5 cells/well, and the culture medium was replaced with DMEM culture medium free from FBS the next day. After 24 hours of culture, the cells were divided into 3 groups (the control group, the TGF-β1 group, and the TGF-β1+hANP group), and used in the following experiment.
To the culture medium for the TGF-β+hANP group, the hANP solution was added so that the final concentration of hANP might be 1 μM. For the control group and the TGF-β1 group, the same amount of physiological saline was added to the culture medium. After 2 hours from the addition, the Boyden chamber assay was performed as follows.
DMEM culture medium free from FBS for the control group, the same DMEM culture medium containing TGF-β1 (final concentration: 1 ng/mL) for the TGF-β1 group, and the same DMEM culture medium containing hANP (final concentration: 1 μM) and TGF-β1 (final concentration: 1 ng/mL) for the TGF-β1+hANP group were separately added to each well of a 6-well dish in an amount of 1.5 mL. On the surface of each liquid, a cell culture insert (8.0 μm pore size, made by Becton, Dickinson and Company) was placed, and onto each cell culture insert, 1.5 mL of a cell suspension of A549 cells of each group in FBS-free DMEM (hANP at final concentration of 1 μM was added for the TGF-β1+hANP group) was added and cultured. […]

[2] = system: A549 cells; assay: Motility, wound healing assay, A549 cells; assay type: cell-based; settings: 1 μM hANP, TGF-β1 1 ng/mL, 24 hours
Experimental: as §1, with “cultured at 4×10^5 cells/well, and” for “cultured at 1×10^5 cells/well, and”, “group, the TGF-(31 group, and” for “group, the TGF-β1 group, and”
To the culture medium for the TGF-β1+hANP group, the hANP solution was added so that the final concentration of hANP would be 1 μM. For the control group and the TGF-β1 group, the same amount of physiological saline was added to the culture medium. Two hours later, a wound was created at the center of each well with the use of a 200 μL-pipette tip. Immediately after the wound creation, a photograph of each well was taken under a microscope (FIG. 7A). To the TGF-β+hANP group and the TGF-β1 group, TGF-β1 was added so that the final concentration would be 1 ng/mL. After 24-hour culture, a photograph of the same part was taken again to calculate the average ratio of the wounded area width difference between immediately after the wound creation and after 24-hour culture (migration ratio: % wounded area filled) by the following formula.
Migration ratio (%)=(initial wound width−wound width after 24-hour culture)/(initial wound width)×100

[3] = system: A549 cells; assay: Apoptosis induction, cell viability by trypan blue staining, A549 cells; assay type: cell-based; settings: hANP 1, 5, 10 μM added 4 times, 48 hours
Experimental: Using a 96-well dish, the A549 cells were cultured at 1×10^4 cells/well. The culture medium was replaced with DMEM culture medium free from FBS the next day, and after 24-hours culture, the following experiment was conducted.
To the culture medium, a hANP solution prepared by serial dilution was added so that the final concentration of hANP would be 1, 5, or 10 μM (for the control group, the same amount of physiological saline was added). Further, 2, 4, and 6 hours later, the same amounts of the hANP solutions at the same concentrations were added (for the control group, the same amount of physiological saline was added) (4 times in total). 48 hours later, trypan blue staining was performed and the cell viability (number of living cells/total number of all cells) was determined with the use of an automatic cell counter Countess (registered trademark) (Invitrogen).

[4] = system: HUVEC; assay: VE-cadherin expression and intercellular adhesion of confluent HUVEC with VEGF; assay type: cell-based, human; settings: VEGF+hANP
Experimental: Normal human umbilical cord vein endothelial cells (HUVEC) were purchased from Takara Bio, Inc. Medium preparation and subculture were performed according to the package insert. Nuclear staining was performed using TOPRO3 (purchased from Invitrogen), and immunostaining of VE-cadherin was performed using anti-VE-cadherin antibody (purchased from BD Biosciences). p After culturing the HUVEC to confluent and replacing the medium with a serum free medium, nuclear staining and immunostaining using anti-VE-cadherin antibody were performed in the presence or absence of VEGF and hANP to observe the expression of VE-cadherin.

[5] = system: mouse melanoma B16-F10; assay: Mouse tail vein injection metastasis test, mouse melanoma B16-F10; assay type: in vivo, mice; settings: 0.5 μg/kg/min by subcutaneous osmotic pump, 2 weeks
Experimental: 6-week-old male […] mice were used (purchased from Japan SLC, Inc.). Mouse melanoma B16-F10 was purchased from ATCC, and cultured in DMEM (Life Technologies Corp.) containing 10% FCS under 5% CO2 at 37° C. The cells in a subconfluent state were treated with EDTA-trypsin, centrifuged, and then suspended in serum free DMEM so as to be 5×10^6 cells/mL. The melanoma cell suspension (100 μL/mouse, 5×10^5 cells) was injected to the tail vein of the mice. The osmotic pumps used were MODEL2002 (for 14-day administration) made by ALZET (Cupertino, Calif,.).
Mice into which an osmotic pump containing 0.9% physiological saline was subcutaneously implanted in the back were assigned to the control group. Similarly, an osmotic pump containing hANP prepared for administration at 0.5 μg/kg/min was subcutaneously implanted into each mouse in the ANP group, an osmotic pump containing mouse BNP prepared for administration at 0.5 μg/kg/min was subcutaneously implanted into each mouse in the BNP group, and an osmotic pump containing hCNP-22 prepared for administration at 2.5 μg/kg/min was subcutaneously implanted into each mouse in the CNP group. To the mice in the sildenafil group, sildenafil citrate at a dosage of 20 mg/kg was intraperitoneally administered once daily. […]

CC[C@H](C)[C@@H]1NC(=O)[C@H](CCCNC(=N)N)NC(=O)[C@H](CC(=O)O)NC(=O)[C@H](CCSC)NC(=O)[C@H](CCCNC(=N)N)NC(=O)CNC(=O)CNC(=O)[C@H](Cc2ccccc2)NC(=O)[C@@H](NC(=O)[C@H](CO)NC(=O)[C@H](CO)NC(=O)[C@H](CCCNC(=N)N)NC(=O)[C@H](CCCNC(=N)N)NC(=O)[C@H](CC(C)C)NC(=O)[C@@H](N)CO)CSSC[C@@H](C(=O)N[C@@H](CC(N)=O)C(=O)N[C@@H](CO)C(=O)N[C@@H](Cc2ccccc2)C(=O)N[C@@H](CCCNC(=N)N)C(=O)N[C@@H](Cc2ccc(O)cc2)C(=O)O)NC(=O)CNC(=O)[C@H](CC(C)C)NC(=O)CNC(=O)[C@H](CO)NC(=O)[C@H](CCC(N)=O)NC(=O)[C@H](C)NC(=O)CNC1=O [hANP, carperitide]
migration ability (cells on lower surface of insert) [1]: significantly suppressed
motility (migration ratio, % wounded area filled) [2]: significantly suppressed
number of living cancer cells (cell viability) [3]: decreased in a hANP-concentration-dependent manner
decrease of VE-cadherin expression and intercellular gaps caused by VEGF [4]: this phenomenon was suppressed
lung metastasis of melanoma (number of nodules) [5]: significantly suppressed

From patent US20140072557A1, “MEDICINAL AGENT FOR SUPPRESSING MALIGNANT TUMOR METASTASIS” (priority 2011, published 2014)
